What was measured:
[1] = test system: Puccinia recondita f. sp. tritici; test: Test I: wheat leaf rust, preventive spray on wheat seedlings, visual disease rating; details: wheat leaf rust, preventive spray; 100 = 100% disease control, 0 = no control
Botrytis cinerea = test: Test B: tomato Botrytis, preventive spray on tomato seedlings, visual disease rating; details: tomato Botrytis, preventive spray; 100 = 100% disease control, 0 = no control
Text: (§1) General protocol for preparing test suspensions for Tests A-J: the test compounds were first dissolved in acetone in an amount equal to 3% of the final volume and then suspended at the desired concentration (in ppm) in acetone and purified water (50/50 mix by volume) containing 250 ppm of the surfactant Trem® 014 (polyhydric alcohol esters). The resulting test suspensions were then used in Tests A-J. Spraying a 200 ppm test suspension to the point of run-off on the test plants was the equivalent of a rate of 500 g/ha. Unless otherwise indicated, the rating values indicate a 200 ppm test suspension was used. (An asterisk “*” next to the rating value indicates a 40 ppm test suspension was used.)
The test suspension was sprayed to the point of run-off on tomato seedlings. The following day the seedlings were inoculated with a spore suspension of Botrytis cinerea (the causal agent of tomato Botrytis) and incubated in saturated atmosphere at 20° C. for 48 h, and then moved to a growth chamber at 24° C. for 3 additional days, after which time visual disease ratings were made.

Septoria tritici = test: Test G: wheat leaf blotch, preventive spray on wheat seedlings, visual disease rating; details: wheat leaf blotch, preventive spray; 100 = 100% disease control, 0 = no control
Alternaria solani = test: Test C: tomato early blight, preventive spray on tomato seedlings, visual disease rating; details: tomato early blight, preventive spray; 100 = 100% disease control, 0 = no control
[2] = test system: Erysiphe graminis f sp. tritici; test: Test J: wheat powdery mildew, preventive spray on wheat seedlings, visual disease rating; details: wheat powdery mildew, preventive spray; 100 = 100% disease control, 0 = no control
Text: as §1
The test suspension was sprayed to the point of run-off on wheat seedlings. The following day the seedlings were inoculated with a spore dust of Erysiphe graminis f sp. tritici, (the causal agent of wheat powdery mildew) and incubated in a growth chamber at 20° C. for 8 days, after which time visual disease ratings were made.

Septoria nodorum = test: Test F: Septoria glume blotch, preventive spray on wheat seedlings, visual disease rating; details: Septoria glume blotch on wheat, preventive spray; 100 = 100% disease control, 0 = no control
Text: as §1
The test suspension was sprayed to the point of run-off on wheat seedlings. The following day the seedlings were inoculated with a spore suspension of Septoria nodorum (the causal agent of Septoria glume blotch) and incubated in a saturated atmosphere at 24° C. for 48 h, and then moved to a growth chamber at 20° C. for 6 days, after which time visual disease ratings were made.

[3] = test system: Puccinia recondita f. sp. tritici; test: Test H: wheat leaf rust, curative spray on inoculated wheat seedlings, visual disease rating; details: wheat leaf rust, curative spray; 100 = 100% disease control, 0 = no control

SMILES	Test I rating (% disease control) [1]	Test B rating (% disease control) (Botrytis cinerea)	Test G rating (% disease control) (Septoria tritici)	Test C rating (% disease control) (Alternaria solani)	Test J rating (% disease control) [2]	Test F rating (% disease control) (Septoria nodorum)	Test H rating (% disease control) [3]
COc1cc(F)c(-c2c(C)nn(C)c2Nc2cc(Cl)c(OC)cc2OC)c(F)c1 [compound 81]	27%	97%	0%	0%	0%	0%	0%
COc1cc(F)c(-c2c(C)nn(C)c2Nc2c(F)cc(C#N)cc2F)c(F)c1 [compound 82]	68%	100%	99%	100%	13%	40%	0%
COc1cc(F)c(Nc2c(-c3c(F)cc(OC)cc3F)c(C)nn2C)c(F)c1 [compound 83]	96%	100%	99%	100%	94%	89%	99%
COc1cc(F)c(-c2c(C)nn(C)c2Oc2c(F)cccc2F)c(F)c1 [compound 84]	100%	100%	100%	100%	99%	78%	98%
COc1cc(OC)cc(-c2c(C)nn(C)c2Oc2c(F)cc(C#N)cc2F)c1 [compound 85]	19%	0%	17%	0%	0%	0%	0%
Cc1nn(C)c(Oc2c(F)cc(C#N)cc2F)c1-c1ccc(Cl)nc1 [compound 86]	0%	0%	48%	0%	0%	0%	0%
COc1cc(F)c(-c2c(C)nn(C)c2Nc2ccc(F)cc2C)c(F)c1 [compound 88]	99%	100%	98%	100%	100%	99%	95%
COc1cc(F)ccc1-c1c(C)nn(C)c1Oc1c(F)cc(C#N)cc1F [compound 89]	0%	99%	99%	0%	97%	0%	0%
COc1cc(F)c(-c2c(C)nn(C)c2Oc2c(F)cc(Br)cc2F)c(F)c1 [compound 90]	98%	99%	100%	95%	100%	84%	0%
Cc1nn(C)c(Nc2c(F)cc(C#N)cc2F)c1-c1c(F)cc(F)cc1F [compound 92]	99%	100%	100%	100%	100%	99%	41%
COc1ccc(Nc2c(-c3c(F)cc(F)cc3F)c(C)nn2C)cc1OC [compound 93]	9%	41%	77%	0%	0%	0%	0%
COc1ccc(Nc2c(-c3c(F)cc(F)cc3F)c(C)nn2C)cn1 [compound 94]	9%	99%	98%	70%	0%	29%	0%
COc1cc(F)c(-c2c(C)nn(C)c2Nc2ccc(OC)nc2)c(F)c1 [compound 95]	0%	99%	97%	16%	0%	0%	0%
Cc1nn(C)c(Oc2ccc(C#N)cc2F)c1-c1c(F)cc(F)cc1F [compound 96]	99%	99%	100%	99%	100%	99%	9%
Cc1cc(F)ccc1-c1c(C)nn(C)c1Oc1c(F)cc(C#N)cc1F [compound 97]	99%	100%	100%	99%	99%	95%	0%
Cc1nn(C)c(Oc2ccc(C#N)cc2Cl)c1-c1c(F)cc(F)cc1F [compound 98]	99%	100%	100%	17%	99%	69%	26%
Cc1nn(C)c(Oc2cc(F)c(C#N)cc2F)c1-c1c(F)cc(F)cc1F [compound 99]	100%	100%	99%	99%	100%	100%	40%
COc1cc(OC)c(Nc2c(-c3c(F)cc(F)cc3F)c(C)nn2C)cc1Cl [compound 100]	41%	38%	48%	0%	0%	0%	0%
Cc1nn(C)c(Nc2ncc(Cl)cc2Cl)c1-c1c(F)cc(F)cc1F [compound 101]	99%	100%	100%	99%	100%	100%	99%
COc1cc(F)c(-c2c(C)nn(C)c2Nc2ncc(Cl)cc2Cl)c(F)c1 [compound 102]	100%	100%	99%	100%	98%	98%	0%
Cc1nn(C)c(Nc2ccc(F)cc2F)c1-c1c(F)cc(O)cc1F [compound 103]	91%	100%	95%	64%	0%	0%	0%
COc1ccc(-c2c(C)nn(C)c2Nc2c(F)cc(F)cc2F)c(Cl)c1 [compound 104]	99%	100%	99%	99%	100%	97%	99%
Cc1nn(C)c(Nc2ccc(F)cc2F)c1-c1c(F)cc(OS(=O)(=O)C(F)(F)F)cc1F [compound 105]	0%	23%	73%	0%	72%	0%	9%
Cc1nn(C)c(Nc2ccc(F)cc2F)c1-c1c(F)cc(C#N)cc1F [compound 106]	99%	100%	100%	99%	100%	90%	82%

Reference: US10448639B2, “Fungicidal pyrazoles” (FMC CORPORATION, priority 2009, dated 2019)
